The values that follow are results of earlier work, collected in US20160287529A1, “METHOD FOR TREATING AND PREVENTING RECURRENT INTERDIGITAL TINEA PEDIS (ATHLETE'S FOOT) DISEASE” (priority 2015, published 2016).

The series has as its system fungal infections of the skin and nails of the human foot. The following applies: topical treatment.

Take `C=CCCCCCCCCC(=O)O` [undecenoic acid]: the “effectiveness compared with the allylamines” value is recorded as “less effective”.
Turning to `Cc1cccc(N(C)C(=S)Oc2ccc3ccccc3c2)c1` [tolnaftate], the “effectiveness compared with the allylamines” value is “less effective”.
